# According to the supplement of paper PMC10307832:
# Tests used:
# Test in all cases: relative viability (nuclei count vs DMSO), 5 days (fraction); higher = more cells survive
# [1] = compound: C1=CC=C2C(=C1)N=C(S2)C(C#N)C3=NC(=NC=C3)NCCC4=CN=CC=C4 + CCNC(=O)c1noc(-c2cc(C(C)C)c(O)cc2O)c1-c1ccc(CN2CCOCC2)cc1 [Luminespib] (partner 0.01 µM)
# Summary of the method: (§1)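 Relative viability divides the nuclei count in treated wells by that in vehicle wells. Lung cancer cell lines were seeded in 1536-well plates, dosed by pin tool the next day, and fixed and stained after 5 days in one step with final 0.05% Triton X-100, 1% formaldehyde and 1 ug/ml Hoechst. Dosing was a single drug or a fixed anchor-drug dose plus five library-drug doses (not always all listed) in √10 steps, and values are medians of duplicate plates imaged at 4×.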
# [2] = compound: C1=CC=C2C(=C1)N=C(S2)C(C#N)C3=NC(=NC=C3)NCCC4=CN=CC=C4 + COc1cc2c(Oc3ccc(NC(=O)C4(C(=O)Nc5ccc(F)cc5)CC4)cc3F)ccnc2cc1OCCCN1CCOCC1 [Foretinib] (partner 0.25 µM)
# Summary of the method: as §1
# Vandetanib + Lapatinib = compound: COc1cc2/c(=N/c3ccc(Br)cc3F)nc[nH]c2cc1OCC1CCN(C)CC1 [Vandetanib] + CS(=O)(=O)CCNCc1ccc(-c2ccc3ncnc(Nc4ccc(OCc5cccc(F)c5)c(Cl)c4)c3c2)o1 [Lapatinib] (partner 2 µM)
# Summary of the method: as §1
# Vandetanib + Tozasertib = compound: COc1cc2/c(=N/c3ccc(Br)cc3F)nc[nH]c2cc1OCC1CCN(C)CC1 [Vandetanib] + Cc1cc(Nc2cc(N3CCN(C)CC3)nc(Sc3ccc(NC(=O)C4CC4)cc3)n2)n[nH]1 [Tozasertib] (partner 0.1 µM)
# Summary of the method: as §1
Cell Line,relative viability ([1]; first compound 0.005 µM),relative viability ([1]; first compound 0.01581 µM),relative viability ([1]; first compound 0.05 µM),relative viability ([1]; first compound 0.1581 µM),relative viability ([1]; first compound 0.5 µM),relative viability ([2]; first compound 0.005 µM),relative viability ([2]; first compound 0.01581 µM),relative viability ([2]; first compound 0.05 µM),relative viability ([2]; first compound 0.1581 µM),relative viability ([2]; first compound 0.5 µM),relative viability (Vandetanib + Lapatinib; first compound 0.02 µM),relative viability (Vandetanib + Lapatinib; first compound 0.06325 µM),relative viability (Vandetanib + Lapatinib; first compound 0.2 µM),relative viability (Vandetanib + Lapatinib; first compound 0.6325 µM),relative viability (Vandetanib + Lapatinib; first compound 2 µM),relative viability (Vandetanib + Tozasertib; first compound 0.02 µM),relative viability (Vandetanib + Tozasertib; first compound 0.06325 µM),relative viability (Vandetanib + Tozasertib; first compound 0.2 µM),relative viability (Vandetanib + Tozasertib; first compound 0.6325 µM),relative viability (Vandetanib + Tozasertib; first compound 2 µM)
NCI-H1651,0.752,0.647,1.02,1.09,0.705,0.687,0.872,0.774,0.801,0.757,0.776,0.834,0.743,0.698,0.846,0.68,0.688,0.14,0.854,0.686
NCI-H1355,0.618,0.832,0.765,0.763,0.568,0.929,1.06,0.96,1.08,0.923,0.984,0.926,0.963,1.05,0.924,0.614,0.519,0.562,0.494,0.516
NCI-H596,0.627,1.02,0.875,1.07,0.764,0.656,0.955,0.741,0.853,0.971,1.1,0.912,1.11,1.1,0.947,0.922,0.706,0.688,1.03,0.898
NCI-H23,0.211,–,0.204,0.225,0.215,0.83,0.995,0.873,1.02,1.07,1.07,0.971,0.969,1.28,0.962,0.307,0.41,0.144,0.382,0.327
NCI-H2126,0.561,0.87,0.73,0.997,0.836,1.14,1.2,1.22,1.19,1.34,0.698,0.747,0.805,0.724,0.768,0.814,0.8,0.795,0.745,0.657
LU99A,0.188,0.254,0.262,0.268,0.274,0.727,0.853,0.701,0.843,0.789,0.973,0.869,1.01,0.828,1.04,0.253,0.33,0.251,0.261,0.3
NCI-H650,0.784,–,0.724,0.825,0.863,0.946,–,0.993,0.942,1.1,1.06,1.04,0.636,0.896,0.308,0.732,0.69,–,0.809,0.723
LXF-289,0.544,0.74,0.661,0.875,0.677,0.898,1.02,0.988,1.01,0.826,0.899,0.842,0.89,0.871,0.887,0.242,0.241,0.215,0.176,0.193
CAL-12T,0.371,0.361,0.422,0.435,0.235,1.06,1.11,0.931,1.27,0.967,0.704,0.611,0.701,0.726,0.749,0.346,0.314,0.148,0.249,0.278
SK-MES-1,1.16,0.937,0.669,0.962,0.85,0.836,1.07,0.863,1.11,0.993,0.474,0.499,0.489,0.471,0.459,0.93,0.84,1.01,1.04,0.847
SW 1573,0.317,0.292,0.221,0.275,0.193,0.963,0.792,0.949,0.994,0.892,1.07,1.21,0.599,1.2,1.17,0.153,0.169,0.19,0.174,0.195
NCI-H1975,–,0.202,0.246,0.171,0.225,0.779,0.897,0.846,1.08,0.73,0.846,0.831,0.862,0.858,0.81,0.771,0.714,0.0829,0.685,0.74
NCI-H647,0.208,0.262,0.169,0.235,0.286,1.08,1.27,1.28,1.32,1.14,1.02,1.09,1.09,1.08,0.999,0.265,0.2,0.141,0.221,0.255
NCI-H322M,0.646,0.829,0.88,0.933,0.932,0.887,0.983,0.838,0.972,0.982,0.6,0.534,0.567,0.516,0.5,0.52,0.454,0.521,0.465,0.291
